For one series, the system named is HCV subgenomic replicon (LucNeo#2 replicon cells). Description: HCV replication inhibition in LucNeo#2 replicon cells, luciferase corrected by cell number (Alamar Blue). Particulars: Hepatitis C virus, 96 h, read-out: Inhibition (%) at 1 uM. The format is cell-based. How it is done: LucNeo#2 replicon cells, which were the HCV subgenomic replicon cells used in Test Example 2, were used to examine HCV replication inhibitory-activity, from which signals were corrected by using cell number.
LucNeo#2 replicon cells cultured to confluency were recovered by trypsin treatment, and were spread on a collagen-coated plate at a density of 1000 cells/well. The cell culture was conducted in an incubator at 37° C., 5% CO2, with 10% FBS/DMEM (containing mixed solution of penicillin-streptomycin and a non-essential amino acid). On the following day or the evening after confirmation of cell adhesion, a compound of formula (I) as the Test compound was added to final concentration of 1.0 to 1.3 μM. At 4 days after the Test compound addition, Alamar Blue diluted 5-fold with PBS(−) was added in an amount of 1/10 for measurement of the fluorescence, to determine the cell count. After the Alamar Blue measurement, the luminescence from intracellular luciferase activity was determined by adding substrate solution in an amount of 5/11 using a Promega kit.
The Alamar Blue activity and luciferase activity were determined by subtracting the values measured for wells without cells. Next, the luciferase activity value×1000 was divided by the value from Alamar Blue measurement, then, the total activity was defined as the value calculated without the Test compound, and the percentages of inhibition by the Test compound was calculated in respect to total activity and listed in Table 4.
(In antiviral work, replicon cells carry a viral genome segment that copies itself.)
Take `COc1cc(/C=C2\CCCN([C@@H](C)c3ccc(F)cc3)C2=O)ccc1-n1cnc(C)c1` [compound 53]: the inhibition at 1 µM amounted to 30.9%.

Still in this series, the particulars now being: Hepatitis C virus, 96 h; 1 uM, 4 days, luciferase activity per Alamar Blue value; read-out: Inhibition (%) at 1 uM.
Consider `COc1cc(/C=C2\CC[C@H]3COC[C@@H](c4cc(F)c(F)c(F)c4)N3C2=O)ccc1-n1cnc(C)c1` [compound 55], for which the inhibition at 1 µM is 66.8%.
`COc1ccc(CNC(=O)/C=C/c2ccc(-n3ccnc3)c(F)c2)cc1` [compound 40]: the inhibition at 1 µM was 59.4%.
Same read-out and setting: the result for `COc1cc(/C=C/C(=O)NC2Cc3ccccc3C2)ccc1-n1ccnc1` [compound 27] reads 69%; that for `CS(=O)(=O)c1cc(/C=C/C(=O)NC2CCc3ccccc32)ccc1-n1ccnc1` (stereo not shown) [compound 34], 70.2%.
As for `COc1cc(/C=C2\NC(=O)N(Cc3ccccc3)C2=O)ccc1-n1cnc(C)c1` [compound 59], the inhibition at 1 µM was found to be 51.9%.
Regarding `COCc1cc(/C=C/C(=O)NC2CCc3ccccc32)ccc1-n1ccnc1` (stereo not shown) [compound 46], the inhibition at 1 µM was 86.4%.
As to `CC(C)Oc1cc(/C=C/C(=O)NC2CCc3ccccc32)ccc1-n1ccnc1` (stereo not shown) [compound 44], the inhibition at 1 µM was determined as 64.6%.
`COc1cc(/C=C/C(=O)NCC2CCCCC2)ccc1-n1ccnc1` [compound 16]: the inhibition at 1 µM was 71.2%.
Turning to `COc1cc(/C=C/C(=O)NCc2ccccc2)ccc1-n1ccnc1` [compound 28], the inhibition at 1 µM amounted to 70.5%.
`COc1cc(/C=C/C(=O)N(C)Cc2ccccc2)ccc1-n1ccnc1` [compound 22]: the inhibition at 1 µM stood at 66.3%.
On the same count and under the same terms, the result for `O=C(/C=C/c1ccc(-n2ccnc2)c(C(F)(F)F)c1)NC1CCc2ccccc21` (stereo not shown) [compound 20] reads 76.7%.
Take `COc1cc(/C=C/C(=O)NNCc2ccccc2)ccc1-n1ccnc1` [compound 45]: the inhibition at 1 µM stood at 68.8%.
Regarding `COc1cc(/C=C/C(=O)NC(Cc2ccccc2)c2ccccc2)ccc1-n1ccnc1` (stereo not shown) [compound 23], the inhibition at 1 µM was found to be 71.6%.
For `COc1cc(/C=C/C(=O)NCc2ccc(Cl)cc2)ccc1-n1ccnc1` [compound 13], the inhibition at 1 µM was determined as 65.9%.
Turning to `CCC(NC(=O)/C=C/c1ccc(-n2cnc(C)c2)c(OC)c1)c1cccnc1` (stereo not shown) [compound 36], the inhibition at 1 µM amounted to 75.7%.
As to `O=C(/C=C/c1ccc(-n2ccnc2)c(Cl)c1)NC1CCc2ccccc21` (stereo not shown) [compound 26], the inhibition at 1 µM stood at 75.5%.
Take `COc1cc(/C=C/C(=O)NC2CCCc3ccccc32)ccc1-n1ccnc1` (stereo not shown) [compound 33]: the inhibition at 1 µM turned out to be 86.8%.
In the case of `Cc1ncn(-c2ccc(/C=C/C(=O)NC3CCc4ccccc43)cc2F)c1C` (stereo not shown) [compound 35], the inhibition at 1 µM came out at 77.2%.
Consider `Cc1cn(-c2ccc(/C=C/C(=O)NC3CCc4ccccc43)cc2Br)cn1` (stereo not shown) [compound 18], for which the inhibition at 1 µM amounted to 75.3%.
For `COc1cc(/C=C/C(=O)NCCc2cccc(Cl)c2)ccc1-n1ccnc1` [compound 41], the inhibition at 1 µM is 71.8%.
As for `COc1cc(/C=C2\CCCN([C@@H](CO)c3ccc(F)cc3)C2=O)ccc1-n1cnc(C)c1` [compound 54], the inhibition at 1 µM amounted to 14.2%.
Take `COc1cc(/C=C/C(=O)NC2CCc3ccccc32)ccc1-n1cncc1Cl` (stereo not shown) [compound 32]: the inhibition at 1 µM was found to be 71.8%.
The same measure, in the same setting: the result for `COc1cc(/C=C/C(=O)N2CCC3(CC2)OCc2ccccc23)ccc1-n1cc(C)nc1C` [compound 50] reads 52.3%; that for `COc1cc(/C=C/C(=O)NC2(c3ccccc3)CC2)ccc1-n1ccnc1` [compound 17], 87.7%; that for `COc1cc(/C=C2\CCCN([C@H](C)c3ccc(C#N)s3)C2=O)ccc1-n1cnc(C)c1` [compound 63], 70.7%.
Turning to `Cc1cn(-c2ccc(/C=C/C(=O)NC3CCc4ccccc43)cc2OC2CCCC2)cn1` (stereo not shown) [compound 47], the inhibition at 1 µM came to 63.8%.
Same read-out and setting: the result for `O=Cc1cc(/C=C/C(=O)NC2CCc3ccccc32)ccc1-n1ccnc1` (stereo not shown) [compound 15] reads 73.3%; that for `Cc1cc(/C=C/C(=O)NC2CCc3ccccc32)ccc1-n1ccnc1` (stereo not shown) [compound 31], 71%.
The same measure, in the same setting: the result for `COc1cc(C#CC(=O)NC(C)c2ccccc2)ccc1-n1cnc(C)c1` (stereo not shown) [compound 58] reads 64.6%.
On to `CC(=O)c1cc(/C=C/C(=O)NC2CCc3ccccc32)ccc1-n1ccnc1` (stereo not shown) [compound 21], for which the inhibition at 1 µM came to 81.9%.
On the same count and under the same terms, with `COc1cc(/C=C2/C[C@H]3CCC[C@H](c4ccc(F)c(F)c4)N3C2=O)ccc1-n1cnc(C)c1` [compound 60] the figure was 50.5%; with `Cc1cn(-c2ccc(/C=C/C(=O)NC3CCc4ccccc43)cc2Cl)cn1` (stereo not shown) [compound 19], 75.4%.
Still for that read-out and setting: with `COc1cc(/C=C2\NC(=S)N(Cc3ccccc3)C2=O)ccc1-n1cnc(C)c1` [compound 62] the figure was 68.2%.
The same measure, in the same setting: the result for `COCc1cn(-c2ccc(/C=C/C(=O)NC3CCc4ccccc43)cc2F)cn1` (stereo not shown) [compound 43] reads 55.8%.
As for `CC(O)c1cc(/C=C/C(=O)NC2CCc3ccccc32)ccc1-n1ccnc1` (stereo not shown) [compound 14], the inhibition at 1 µM worked out at 73.4%.
Still for that read-out and setting: the result for `COc1cc(/C=C/C(=O)N2C[C@H]2c2ccccc2)ccc1-n1cnc(C)c1` [compound 51] reads 62.2%; that for `COc1cc(/C=C/C(=O)NCc2ccc(C(F)(F)F)cc2)ccc1-n1ccnc1` [compound 39], 53.2%.
Same read-out and setting: the result for `COc1cc(/C=C/C(=O)N2CCC(n3c(=O)[nH]c4ccccc43)CC2)ccc1-n1ccnc1` [compound 52] reads 51.4%.
Same read-out and setting: with `C/C(=C\C(=O)NC1CCc2ccccc21)c1ccc(-n2ccnc2)c(F)c1` (stereo not shown) [compound 64] the figure was 78%; with `COc1cc(/C=C2\CCN([C@@H](C)c3ccc(F)cc3)C2=O)ccc1-n1cnc(C)c1` [compound 56], 65.8%; with `Cc1cncn1-c1ccc(/C=C/C(=O)NC2CCc3ccccc32)cc1C#N` (stereo not shown) [compound 25], 83.5%.
Regarding `COc1cc(/C=C/C(=O)NCc2cccc(F)c2)ccc1-n1ccnc1` [compound 29], the inhibition at 1 µM amounted to 62.8%.
For `COc1cc(/C=C/C(=O)NCc2ccccc2C(F)(F)F)ccc1-n1ccnc1` [compound 37], the inhibition at 1 µM came to 77.1%.
Same read-out and setting: the result for `COc1cc(/C=C/C(=O)N(CCO)Cc2ccccc2)ccc1-n1cc(C)nc1C` [compound 49] reads 71.6%; that for `COc1cc(/C=C\C(=O)NC2CCc3ccccc32)ccc1-n1ccnc1` (stereo not shown) [compound 30], 66.4%; that for `COc1cc(/C=C/C(=O)NCCc2ccc(Cl)cc2)ccc1-n1ccnc1` [compound 48], 61.3%.
On the same count and under the same terms, the result for `COc1cc(/C=C/C(=O)NC(c2ccccc2)c2ccccc2)ccc1-n1ccnc1` [compound 42] reads 75.8%; that for `COc1ccccc1CNC(=O)/C=C/c1ccc(-n2ccnc2)c(OC)c1` [compound 38], 63.7%; that for `COc1cc(/C(F)=C(/C)C(=O)NC2CCc3ccccc32)ccc1-n1cnc(C)c1` (stereo not shown) [compound 61], 50.5%.

The test system of a further series is LucNeo#2 replicon cells. Description: Cytotoxicity, Alamar Blue in LucNeo#2 replicon cells. The format is cell-based. Particulars: 3.3 μM, 72 hours, percentage of solvent-treated group. As for the experimental part: (§1) LucNeo#2 replicon cells cultured to confluency were recovered by trypsin treatment, and were spread on a collagen-coated plate at a density of 20,000 cells/mL. The cell culture was conducted in an incubator at 37° C., 5% CO2, with 10% FCS/DMEM (containing mixed solution of penicillin-streptomycin, G418 and a non-essential amino acid). After 24 hours, the cells were rinsed and a compound of formula (I) was added as Test compound to final concentrations of 3.3 μM or 10 μM. At 72 hours after addition of the Test compound, the cells of one plate were rinsed, the cells were lysed with M-PER, and the intracellular luciferase activity was measured using a Promega kit. An Alamar Blue solution was also added to cells cultured under the same conditions, and the cytotoxicity was examined.
(§2) The intracellular luciferase activity and the Alamar Blue signal for cytotoxicity at 72 hours after Test compound addition were shown in Table 3 as a percentage with respect to the solvent-treated group.
In general terms: The colour change of resazurin is a common sign of viable cells or microbes.
On to `COc1cc(/C=C2\CCCN([C@@H](CO)c3ccc(F)cc3)C2=O)ccc1-n1cnc(C)c1` [Test compound C, (E)-1-[(1R)-1-(4-fluorophenyl)-2-hydroxyethyl]-3-[3-methoxy-4-(4-methyl-1H-imidazol-1-yl)benzylidene]piperidin-2-one], for which the “Cytotoxicity (Alamar Blue signal)” value is listed as 101.00%.

Still in this series, the particulars now being: 10 μM, 72 hours, percentage of solvent-treated group.
As for `COc1cc(/C=C2\CCCN([C@@H](CO)c3ccc(F)cc3)C2=O)ccc1-n1cnc(C)c1` [Test compound C, (E)-1-[(1R)-1-(4-fluorophenyl)-2-hydroxyethyl]-3-[3-methoxy-4-(4-methyl-1H-imidazol-1-yl)benzylidene]piperidin-2-one], the “Cytotoxicity (Alamar Blue signal)” value amounted to 102.00%.

For another series, the system named is HCV subgenomic replicon (LucNeo#2 replicon cells). The series can be described thus: Replicon assay, intracellular luciferase activity in LucNeo#2 replicon cells. The format is cell-based, Hepatitis C virus. Conditions: 3.3 μM, 72 hours, percentage of solvent-treated group.
Excerpt: The inhibitory-effect on HCV replication and the cytotoxicity of a compound of formula (I) of the invention were examined by a replicon assay method using different HCV subgenomic replicon cells from Example 1, specifically LucNeo#2 replicon cells. The LucNeo#2 replicon cells are reporter cells created with the same concept as the luc-ubi-neo/ET replicon cells used in Test Example 1, and are utilized for analysis of the RNA replication mechanism of HCV or anti-HCV drug evaluation, but the gene sequence differs from that of luc-ubi-neo/ET replicon cells (Biochem. Biophys. Res. Commun. 343 (2006) 879-884).
as §1, §2
`COc1cc(/C=C2\CCCN([C@@H](CO)c3ccc(F)cc3)C2=O)ccc1-n1cnc(C)c1` [Test compound C, (E)-1-[(1R)-1-(4-fluorophenyl)-2-hydroxyethyl]-3-[3-methoxy-4-(4-methyl-1H-imidazol-1-yl)benzylidene]piperidin-2-one] displayed a Luciferase activity of 93.50%.

Still in this series, the particulars now being: 10 μM, 72 hours, percentage of solvent-treated group.
The molecule `COc1cc(/C=C2\CCCN([C@@H](CO)c3ccc(F)cc3)C2=O)ccc1-n1cnc(C)c1` [Test compound C, (E)-1-[(1R)-1-(4-fluorophenyl)-2-hydroxyethyl]-3-[3-methoxy-4-(4-methyl-1H-imidazol-1-yl)benzylidene]piperidin-2-one] returned a Luciferase activity of 55.00%.

The series is the same for the next values; noted with them: LucNeo#2 replicon cells, 3.3 and 10 μM.
As for `COc1cc(/C=C2\CCCN([C@@H](CO)c3ccc(F)cc3)C2=O)ccc1-n1cnc(C)c1` [Test compound C, (E)-1-[(1R)-1-(4-fluorophenyl)-2-hydroxyethyl]-3-[3-methoxy-4-(4-methyl-1H-imidazol-1-yl)benzylidene]piperidin-2-one], the “HCV replication inhibitory-activity (in words)” value was “potent HCV replication inhibitory-activity by reducing the luciferase activity in a dose-dependent manner”.

Broadly, the inhibition is the relative decrease from the control value, in per cent.
